Test results taken from patent publication US20260183408A1, “POLYPEPTIDE AND USE THEREOF” (SHENZHEN CHENYANG BIOLOGICAL TECHNOLOGY CO., LTD, priority 2022, published 2026).

Test system: CRS mice
Assay: Open field test (OFT, time spent in the central area)
Type: in vivo, mouse
Details: single intraperitoneal 3 nmol/g, 1 hour later (FIG. 13)
Protocol: The C57BL/6J mice were horizontally fixed for 6 h (from 10 to 16 o'clock) in a first acrylic restraint which is cylindrical and flat-bottomed (25×90 mm) every day for 2 weeks. The filter had several slots which could adapt to the size of each mouse to firmly restrain the mouse and inhibit body movements of the limb and trunk without causing pain. Immediately after being restrained, the mice were sent back to their cages. Unrestrained mice (control) stayed in their cages when no CRS procedure was performed. Neither the control mice nor the CRS mice could have access to food and water during the CRS exposure.
In order to evaluate the anti-anxiety-like effect of the polypeptide of the present invention, a CRS mouse model was established using the method in Example 6. The mice were treated with TAT or TAT-D2R-KL (single intraperitoneal administration at 3 nmol/g in both cases), and 1 hour later, an open field test (OFT) for testing the time spent in the central area and an elevated plus maze (EPM) test were performed. […]
OFT (for testing the time spent in the central area): The bottom of the open field was divided into 25 squares of equal area, with the 9 squares in the middle defined as the central area. One hour after the polypeptide treatment, the mice were placed in the central area to be recorded for 5 min, and the time spent in the central area by the mice was recorded.

TAT-D2R-KL: C-terminus of the KL (K226-L240) region of D2R fused to the transduction domain of HIV-1 Tat protein (SEQ ID NO: 5)
time spent in the central area: significantly increased
